Test results from patent US8455009B2, “Amniotic membrane preparations and purified compositions and anti-inflammation methods” (TissueTech, Inc., priority 2005, dated 2013).

Key:
Raw264.7 cells = experiment: NO assay (nitrite, Griess reagent) in Raw264.7 macrophages; assay type: cell-based, mouse; details: 500 μM inhibitor; cells cultured on AM
Description: Raw 264.7 cells, a mouse macrophage cell line, were obtained from the ATCC and cultured in phenol red-free Dulbecco's modified Eagle's medium (DMEM) supplemented with 10% fetal bovine serum, 50 μg/ml gentamicin, and 1.25 μg/ml fungizone in 100 mm culture dishes. When cells became 70%-80% confluent, the medium was removed and cells were treated with trypsin/EDTA for 10 min at 25° C. After digestion, cells were still firmly attached to the dish, so the trypsin/EDTA solution was removed. […] After centrifugation at 500×g for 5 min, the medium was removed, the cell pellet resuspended in the DMEM/ITS medium, cells counted, and cell density adjusted to 0.5×10^6/ml. […]
At the end of the cultivation, the cell culture medium in each well was harvested individually and centrifuged at 12,000×g for 10 min at 4° C. […] NO production was assessed by measuring the nitrite, its stable degradation product, using Griess reagent according to the manufacturer's protocol. Briefly, 50 μl of the cleared medium was mixed with 100 μl of the Griess reagents (ICN Biomedicals, Aurora, Ohio), after 15 min the absorbance was measured at 550 nm using Fusion™ universal microplate analyzer (Packard, Meriden, Conn.). The amount of nitrite was calculated from a standard curve of sodium nitrite (NaNO2; Sigma, St. Louis, Mo.).

Raw 264.7 cells = experiment: Hoechst-33342 nuclear staining of macrophages; assay type: cell-based, mouse; details: 500 μM inhibitor; cells on AM with IFN γ
From the text: To determine if the aforementioned cell death was mediated by apoptosis, cells in parallel experiments were subjected to Hoechst-33342 staining. Fragmented nuclei with strong Hoechst staining were found more in AM/IFN γ as compared to AM without IFN γ and to their plastic controls. Percentages of Hoechst-33342-positive apoptotic nuclei were 12.4±2.7% (PL), 16.5±3.1% (PL/IFN γ), 14.7±1.1% (AM), and 63.8±7.9% (AM/IFN γ). There was no statistical difference between PL and PL/IFN γ and between PL and AM (all p>0.05), while there was a statistical difference between AM and AM/IFN γ and between PL/IFNγ and AM/IFNγ (all p<0.001). […] In contrast, there was no such giant cell in AM/IFNγ cultures.

TGF-β1 promoter = TGF-β1 promoter suppression (adenoviral promoter-luciferase) in human corneal fibroblasts; assay type: cell-based
Description: When human corneal fibroblasts cultured on 100 mm plastic dish in DMEM/10% FBS reached 80% confluency (˜1.0×10^6 cells), cells were washed twice with DMEM/10% FBS. Adenoviruses-TGF-β1 promoter-luciferase (MOI=37.5) and Adeno-CMV-beta-gal (MOI=30) were added to the culture plates with 10 ml of the fresh DMEM/10% FBS and cells were incubated at 37° C. for 4 hours, and trypsinized for 5 minutes using 4 ml prewarmed trypsin/EDTA. After trypsin/EDTA activity was neutralized with 8 ml of DMEM/10% FBS, cells were collected into a 15 ml tube and centrifuged at 1,500 rpm (˜600×g) for 5 min. After decanting the medium, cells were resuspended in 15 ml DMEM/10% FBS, and cell viability was measured by trypan blue stain. Viable 3×10^4 cells were seeded on a plastic 24 well or on the stromal surface of AM inserts. A total of 4 wells or inserts were prepared. Cells were then incubated at 37° C. in a CO2 incubator for 48 hours.
After carefully removing the growth medium from each well, cells were rinsed with 0.5 ml PBS at lease twice, taking care not to dislodge attached cells. After removing as much as PBS in the well, 100 μl 1× lysis buffer was added to cover the cells, and cells were mechanically scraped and transferred to a microcentrifuge tube placed on ice. Cell lysates were collected by vortexing for 10-15 sec and centrifuging at 12,000×g for 15 sec at room temperature. […]

[1] = tested on: human corneal fibroblasts; experiment: Cell morphology and density of human corneal fibroblasts after treatment; assay type: cell-based; details: HA alone; low concentrations of AME or jelly extracts
From the text: The above changes were even more dramatic in lyophilized AME or L/AME than their non-lyophilized counterparts in AME or Jelly extracts, respectively (FIG. 6).

Molecule | IFN γ induced nitrite level with NO synthase inhibitor (Raw264.7 cells) | extent of macrophage apoptosis with NO synthase inhibitor (Raw 264.7 cells) | suppressive activity on TGF-β1 promoter, HA alone (TGF-β1 promoter; 100 μg/ml) | suppression of TGF-β1 promoter activation (TGF-β1 promoter; compared to the PBS control, normalized with beta-galatosidase activity, FIG. 5) | change in cell morphology [1]
CC(=N)NCCCC[C@H](N)C(=O)O.Cl [L-NIL, L-N-6-(1-iminoethyl) lysine hydrochloride] | 14.0 ± 9.8 µM | not significantly attenuated |  |  | 
CC(=O)O.CNC(=N)NCCC[C@H](N)C(=O)O [L-NMMA, NG-monomethyl-L-arginine acetate] | 19.8 ± 4.9 µM | not significantly attenuated |  |  | 
hyaluronic acid [HA] |  |  | mild suppressive activity | showed suppression | no change in cell morphology
